We go through seven compounds from ChEMBL document CHEMBL4265983, “Discovery and biological evaluation of thiobarbituric derivatives as potent p300/CBP inhibitors” (Bioorg Med Chem, 2018).

The source made the active and inactive calls. No cut-off for these calls is given here.

The target of assay [1] is Histone acetyltransferase p300 (Homo sapiens, UniProt Q09472). Description: Inhibition of p300 (unknown origin) using human histone as substrate measured after 60 mins in presence of [3H]-acetyl-CoA by microbeta counting method.
Assay [2] relates to MV4-11. In words: Antiproliferative activity against human MV4-11 cells after 72 hrs by CellTiter-Glo assay. As to conditions: MV4-11, 72 h. (In ATP-based viability assays light output follows the ATP content of the culture.)
The target of assay [3] is T1, CREB-binding protein/Histone acetyltransferase p300 (Homo sapiens) (UniProt Q09472+Q92793). In words: Inhibition of P300/CBP acetyl transferase activity in human MV4-11 cells assessed as reduction in acetylated H3K18 levels at 2.2 to 60 uM after 24 hrs in presence of SAHA by Western blot analysis. It is filed as cell-based. (Immunoblotting shows a protein as a band on a membrane.)

Assay [4] concerns the target T1, CREB-binding protein/Histone acetyltransferase p300 (Homo sapiens). In words: Inhibition of P300/CBP acetyl transferase activity in human Kasumi-1 cells assessed as reduction in acetylated H3K18 levels at 2.2 to 60 uM after 24 hrs in presence of SAHA by Western blot analysis. It is filed as cell-based.
In assay [5] the target is Histone acetyltransferase KAT5 (Homo sapiens, UniProt Q92993). In words: Inhibition of Tip60 (unknown origin).
The next assay has as its target CREB-binding protein (Homo sapiens, UniProt Q92793). Description: Inhibition of CBP (unknown origin) in presence of [3H]-acetyl-CoA.
In another assay the test system is CCRF-CEM. Description: Antiproliferative activity against human CEM cells after 72 hrs by CellTiter-Glo assay.
In the next assay the test system is MOLT-3. Description: Antiproliferative activity against human MOLT3 cells after 72 hrs by CellTiter-Glo assay. The conditions noted are these: MOLT-3, 72 h.
The subject of the next assay is Jurkat. Description: Antiproliferative activity against human Jurkat cells after 72 hrs by CellTiter-Glo assay.
The next assay deals with MOLT-4. In words: Antiproliferative activity against human MOLT4 cells after 72 hrs by CellTiter-Glo assay. As to conditions: MOLT-4, 72 h.
The subject of the next assay is Kasumi 1. In words: Antiproliferative activity against human Kasumi-1 cells after 72 hrs by CellTiter-Glo assay. As to conditions: Kasumi 1, 72 h.
The test system of another assay is THP-1. Description: Antiproliferative activity against human THP1 cells after 72 hrs by CellTiter-Glo assay. The conditions noted are these: THP-1, 72 h.
The subject of the next assay is RS4-11. Description: Antiproliferative activity against human RS4:11 cells after 72 hrs by CellTiter-Glo assay. The conditions noted are these: RS4-11, 72 h.
The test system of a further assay is KOPN-8. In words: Antiproliferative activity against human KOPN8 cells after 72 hrs by CellTiter-Glo assay. As to conditions: KOPN-8, 72 h.
The next assay relates to K562. In words: Antiproliferative activity against human K562 cells after 72 hrs by CellTiter-Glo assay. As to conditions: K562, 72 h.
The target in assay [6] is T1, CREB-binding protein/Histone acetyltransferase p300 (Homo sapiens). Description: Inhibition of P300/CBP acetyl transferase activity in human MV4-11 cells assessed as reduction in acetylated H3K18 levels after 24 hrs in presence of SAHA by Western blot analysis. It counts as cell-based.
Assay [7] has the same target. In words: Inhibition of P300/CBP acetyl transferase activity in human Kasumi-1 cells assessed as reduction in acetylated H3K18 levels after 24 hrs in presence of SAHA by Western blot analysis. It counts as cell-based.
Assay [8] has as its system MV4-11. In words: Cell cycle arrest in human MV4-11 cells assessed as accumulation at G1 phase up to 20 uM after 24 hrs by propidium iodide/RNase staining-based flow cytometric analysis. It counts as functional. (In general: Flow cytometry measures light scatter and fluorescence of single cells or particles in a stream.)
Assay [9] deals with MV4-11. In words: Induction of apoptosis in human MV4-11 cells up to 20 uM after 48 hrs by Annexin V-FITC/propidium iodide staining-based flow cytometric analysis. It is filed as functional, cell-based.
The subject of assay [10] is MV4-11. In words: Induction of apoptosis in human MV4-11 cells assessed as apoptotic cells at 6.7 uM after 48 hrs by Annexin V-FITC/propidium iodide staining-based flow cytometric analysis. It counts as functional.
Assay [11] has as its system MV4-11. In words: Induction of apoptosis in human MV4-11 cells assessed as increase in cleaved PARP levels after 24 hrs by Western blot analysis. It is filed as functional, cell-based.
Assay [12] has as its system MV4-11. Description: Induction of apoptosis in human MV4-11 cells assessed as increase in cleaved caspase9 levels after 24 hrs by Western blot analysis. It is filed as functional, cell-based.
Assay [13] concerns MV4-11. In words: Induction of apoptosis in human MV4-11 cells assessed as increase in cleaved caspase3 levels after 24 hrs by Western blot analysis. It is filed as functional, cell-based.
Assay [14] deals with T1, CREB-binding protein/Histone acetyltransferase p300 (Homo sapiens). In words: Inhibition of P300/CBP in human MV4-11 cells assessed as downregulation of MYC RNA expression at 20 uM after 12 hrs by RNA-seq analysis. It counts as cell-based.
Assay [15] shares this target. Description: Inhibition of P300/CBP in human MV4-11 cells assessed as downregulation of CCNB1 RNA expression at 20 uM after 12 hrs by RNA-seq analysis. It counts as cell-based.
The target is the same in assay [16]. Description: Inhibition of P300/CBP in human MV4-11 cells assessed as downregulation of CCNA2 RNA expression at 20 uM after 12 hrs by RNA-seq analysis. It counts as cell-based.
The target is the same in assay [17]. Description: Inhibition of P300/CBP in human MV4-11 cells assessed as downregulation of HIF1A RNA expression at 20 uM after 12 hrs by RNA-seq analysis. It is filed as cell-based.
Assay [18] has the same target. In words: Inhibition of P300/CBP in human MV4-11 cells assessed as downregulation of RRM2B RNA expression at 20 uM after 12 hrs by RNA-seq analysis. It is filed as cell-based.
Assay [19] has the same target. Description: Inhibition of P300/CBP in human MV4-11 cells assessed as upregulation of GADD45B RNA expression at 20 uM after 12 hrs by RNA-seq analysis. It is filed as cell-based.
Assay [20] has the same target. In words: Inhibition of P300/CBP in human MV4-11 cells assessed as upregulation of BAX RNA expression at 20 uM after 12 hrs by RNA-seq analysis. It is filed as cell-based.
The target is the same in assay [21]. Description: Inhibition of P300/CBP in human MV4-11 cells assessed as upregulation of SESN2 RNA expression at 20 uM after 12 hrs by RNA-seq analysis. It counts as cell-based.
The test system of assay [22] is MV4-11. In words: Antitumor activity against human MV4-11 cells xenografted in ip dosed nude mouse assessed as reduction in tumor growth rate administered every 2 days for 20 days. It counts as functional, organism-based.
Assay [23] concerns MV4-11. In words: Antitumor activity against human MV4-11 cells xenografted in nude mouse assessed as reduction in tumor cell proliferation at 25 to 50 mg/kg, ip administered every 2 days for 20 days by KI-67-staining based microscopic analysis. It is filed as functional, organism-based.
For assay [24], the system named is MV4-11. Description: Antitumor activity against human MV4-11 cells xenografted in ip dosed nude mouse assessed as increase in apoptotic cells administered every 2 days for 20 days by TUNEL assay. It counts as functional, organism-based.
For assay [25], the target named is T1, CREB-binding protein/Histone acetyltransferase p300 (Homo sapiens). Description: Inhibition of P300/CBP in human MV4-11 cells assessed as change in UHRF1 mRNA expression at 20 uM after 12 hrs by RNA-seq analysis. It is filed as cell-based.
For assay [26] the target is unchanged. In words: Inhibition of P300/CBP in human MV4-11 cells assessed as change in DEPDC1 mRNA expression at 20 uM after 12 hrs by RNA-seq analysis. It is filed as cell-based.
The target is the same in assay [27]. In words: Inhibition of P300/CBP in human MV4-11 cells assessed as downregulation of MYC RNA expression at 20 uM after 12 hrs by RT-PCR analysis. It is filed as cell-based.
The target is the same in assay [28]. Description: Inhibition of P300/CBP in human MV4-11 cells assessed as downregulation of CCNB1 RNA expression at 20 uM after 12 hrs by RT-PCR analysis. It counts as cell-based.
For assay [29] the target is unchanged. Description: Inhibition of P300/CBP in human MV4-11 cells assessed as downregulation of CCNA2 RNA expression at 20 uM after 12 hrs by RT-PCR analysis. It counts as cell-based.
The target is the same in assay [30]. In words: Inhibition of P300/CBP in human MV4-11 cells assessed as downregulation of HIF1A RNA expression at 20 uM after 12 hrs by RT-PCR analysis. It is filed as cell-based.
For assay [31] the target is unchanged. In words: Inhibition of P300/CBP in human MV4-11 cells assessed as downregulation of RRM2B RNA expression at 20 uM after 12 hrs by RT-PCR analysis. It is filed as cell-based.
For assay [32] the target is unchanged. In words: Inhibition of P300/CBP in human MV4-11 cells assessed as upregulation of GADD45B RNA expression at 20 uM after 12 hrs by RT-PCR analysis. It is filed as cell-based.
For assay [33] the target is unchanged. In words: Inhibition of P300/CBP in human MV4-11 cells assessed as upregulation of BAX RNA expression at 20 uM after 12 hrs by RT-PCR analysis. It is filed as cell-based.
For assay [34] the target is unchanged. In words: Inhibition of P300/CBP in human MV4-11 cells assessed as upregulation of SESN2 RNA expression at 20 uM after 12 hrs by RT-PCR analysis. It is filed as cell-based.

T1 sequence (Q09472 whole entry, looked up): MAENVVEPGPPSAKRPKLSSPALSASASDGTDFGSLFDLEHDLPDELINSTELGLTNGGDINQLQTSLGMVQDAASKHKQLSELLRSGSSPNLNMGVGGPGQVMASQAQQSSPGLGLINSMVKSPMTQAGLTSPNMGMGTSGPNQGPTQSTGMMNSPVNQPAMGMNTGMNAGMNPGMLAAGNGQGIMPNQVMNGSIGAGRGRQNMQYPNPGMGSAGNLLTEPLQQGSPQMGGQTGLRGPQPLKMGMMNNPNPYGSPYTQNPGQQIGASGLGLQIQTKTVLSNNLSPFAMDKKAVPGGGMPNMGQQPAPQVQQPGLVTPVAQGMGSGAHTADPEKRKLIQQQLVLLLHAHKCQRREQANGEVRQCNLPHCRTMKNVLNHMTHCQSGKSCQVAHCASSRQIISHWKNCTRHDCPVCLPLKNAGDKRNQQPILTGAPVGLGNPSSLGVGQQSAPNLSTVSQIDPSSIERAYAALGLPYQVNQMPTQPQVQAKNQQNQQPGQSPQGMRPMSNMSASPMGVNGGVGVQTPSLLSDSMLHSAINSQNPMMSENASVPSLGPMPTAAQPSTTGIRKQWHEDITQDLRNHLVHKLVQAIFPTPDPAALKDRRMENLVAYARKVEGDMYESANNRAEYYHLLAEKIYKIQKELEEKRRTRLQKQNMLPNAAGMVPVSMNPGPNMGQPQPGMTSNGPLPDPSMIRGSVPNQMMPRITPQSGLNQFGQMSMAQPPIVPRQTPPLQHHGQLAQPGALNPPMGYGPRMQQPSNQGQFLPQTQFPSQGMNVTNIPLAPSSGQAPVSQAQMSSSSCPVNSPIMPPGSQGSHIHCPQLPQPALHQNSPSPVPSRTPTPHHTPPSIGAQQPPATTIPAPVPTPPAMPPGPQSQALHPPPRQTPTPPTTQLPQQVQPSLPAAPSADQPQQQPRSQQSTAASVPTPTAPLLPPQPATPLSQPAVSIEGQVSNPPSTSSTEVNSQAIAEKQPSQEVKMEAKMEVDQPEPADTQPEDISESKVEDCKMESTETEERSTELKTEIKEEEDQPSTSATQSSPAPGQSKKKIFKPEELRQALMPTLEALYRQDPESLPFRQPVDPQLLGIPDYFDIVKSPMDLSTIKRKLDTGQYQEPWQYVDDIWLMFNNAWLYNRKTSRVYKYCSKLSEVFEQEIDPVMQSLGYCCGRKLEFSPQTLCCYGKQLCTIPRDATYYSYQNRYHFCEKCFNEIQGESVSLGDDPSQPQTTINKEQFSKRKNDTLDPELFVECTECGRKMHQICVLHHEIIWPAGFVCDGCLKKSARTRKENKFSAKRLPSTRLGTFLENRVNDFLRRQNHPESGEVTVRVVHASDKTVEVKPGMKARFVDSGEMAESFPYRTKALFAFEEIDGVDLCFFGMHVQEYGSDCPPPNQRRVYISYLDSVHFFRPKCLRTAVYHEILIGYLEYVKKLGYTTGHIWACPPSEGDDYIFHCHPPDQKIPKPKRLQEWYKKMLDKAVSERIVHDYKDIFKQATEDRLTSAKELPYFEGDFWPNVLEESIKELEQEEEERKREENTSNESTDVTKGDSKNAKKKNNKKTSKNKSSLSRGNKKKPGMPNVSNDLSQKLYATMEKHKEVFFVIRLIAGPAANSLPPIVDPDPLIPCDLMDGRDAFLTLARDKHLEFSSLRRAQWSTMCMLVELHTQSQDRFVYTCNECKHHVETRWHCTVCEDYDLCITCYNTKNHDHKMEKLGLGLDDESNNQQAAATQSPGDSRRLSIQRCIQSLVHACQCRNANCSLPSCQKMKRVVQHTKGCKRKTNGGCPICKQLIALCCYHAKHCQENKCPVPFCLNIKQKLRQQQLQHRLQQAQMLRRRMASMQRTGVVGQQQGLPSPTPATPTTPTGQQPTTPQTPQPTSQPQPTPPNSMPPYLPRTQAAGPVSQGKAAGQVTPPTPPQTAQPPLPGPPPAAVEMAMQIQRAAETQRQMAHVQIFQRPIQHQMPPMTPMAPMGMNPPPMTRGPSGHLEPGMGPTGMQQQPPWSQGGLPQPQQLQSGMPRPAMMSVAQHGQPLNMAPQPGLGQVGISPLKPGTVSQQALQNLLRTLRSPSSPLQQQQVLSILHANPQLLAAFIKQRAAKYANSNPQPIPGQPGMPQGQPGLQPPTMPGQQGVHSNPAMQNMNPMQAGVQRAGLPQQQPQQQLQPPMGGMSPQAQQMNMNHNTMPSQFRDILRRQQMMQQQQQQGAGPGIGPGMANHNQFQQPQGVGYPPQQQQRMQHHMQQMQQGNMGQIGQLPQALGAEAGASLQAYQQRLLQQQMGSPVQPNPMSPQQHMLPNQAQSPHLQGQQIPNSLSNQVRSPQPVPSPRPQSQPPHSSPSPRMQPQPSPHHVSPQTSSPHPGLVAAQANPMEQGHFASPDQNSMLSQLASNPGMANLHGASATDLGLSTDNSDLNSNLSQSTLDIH
T1 sequence (Q92793 whole entry, looked up): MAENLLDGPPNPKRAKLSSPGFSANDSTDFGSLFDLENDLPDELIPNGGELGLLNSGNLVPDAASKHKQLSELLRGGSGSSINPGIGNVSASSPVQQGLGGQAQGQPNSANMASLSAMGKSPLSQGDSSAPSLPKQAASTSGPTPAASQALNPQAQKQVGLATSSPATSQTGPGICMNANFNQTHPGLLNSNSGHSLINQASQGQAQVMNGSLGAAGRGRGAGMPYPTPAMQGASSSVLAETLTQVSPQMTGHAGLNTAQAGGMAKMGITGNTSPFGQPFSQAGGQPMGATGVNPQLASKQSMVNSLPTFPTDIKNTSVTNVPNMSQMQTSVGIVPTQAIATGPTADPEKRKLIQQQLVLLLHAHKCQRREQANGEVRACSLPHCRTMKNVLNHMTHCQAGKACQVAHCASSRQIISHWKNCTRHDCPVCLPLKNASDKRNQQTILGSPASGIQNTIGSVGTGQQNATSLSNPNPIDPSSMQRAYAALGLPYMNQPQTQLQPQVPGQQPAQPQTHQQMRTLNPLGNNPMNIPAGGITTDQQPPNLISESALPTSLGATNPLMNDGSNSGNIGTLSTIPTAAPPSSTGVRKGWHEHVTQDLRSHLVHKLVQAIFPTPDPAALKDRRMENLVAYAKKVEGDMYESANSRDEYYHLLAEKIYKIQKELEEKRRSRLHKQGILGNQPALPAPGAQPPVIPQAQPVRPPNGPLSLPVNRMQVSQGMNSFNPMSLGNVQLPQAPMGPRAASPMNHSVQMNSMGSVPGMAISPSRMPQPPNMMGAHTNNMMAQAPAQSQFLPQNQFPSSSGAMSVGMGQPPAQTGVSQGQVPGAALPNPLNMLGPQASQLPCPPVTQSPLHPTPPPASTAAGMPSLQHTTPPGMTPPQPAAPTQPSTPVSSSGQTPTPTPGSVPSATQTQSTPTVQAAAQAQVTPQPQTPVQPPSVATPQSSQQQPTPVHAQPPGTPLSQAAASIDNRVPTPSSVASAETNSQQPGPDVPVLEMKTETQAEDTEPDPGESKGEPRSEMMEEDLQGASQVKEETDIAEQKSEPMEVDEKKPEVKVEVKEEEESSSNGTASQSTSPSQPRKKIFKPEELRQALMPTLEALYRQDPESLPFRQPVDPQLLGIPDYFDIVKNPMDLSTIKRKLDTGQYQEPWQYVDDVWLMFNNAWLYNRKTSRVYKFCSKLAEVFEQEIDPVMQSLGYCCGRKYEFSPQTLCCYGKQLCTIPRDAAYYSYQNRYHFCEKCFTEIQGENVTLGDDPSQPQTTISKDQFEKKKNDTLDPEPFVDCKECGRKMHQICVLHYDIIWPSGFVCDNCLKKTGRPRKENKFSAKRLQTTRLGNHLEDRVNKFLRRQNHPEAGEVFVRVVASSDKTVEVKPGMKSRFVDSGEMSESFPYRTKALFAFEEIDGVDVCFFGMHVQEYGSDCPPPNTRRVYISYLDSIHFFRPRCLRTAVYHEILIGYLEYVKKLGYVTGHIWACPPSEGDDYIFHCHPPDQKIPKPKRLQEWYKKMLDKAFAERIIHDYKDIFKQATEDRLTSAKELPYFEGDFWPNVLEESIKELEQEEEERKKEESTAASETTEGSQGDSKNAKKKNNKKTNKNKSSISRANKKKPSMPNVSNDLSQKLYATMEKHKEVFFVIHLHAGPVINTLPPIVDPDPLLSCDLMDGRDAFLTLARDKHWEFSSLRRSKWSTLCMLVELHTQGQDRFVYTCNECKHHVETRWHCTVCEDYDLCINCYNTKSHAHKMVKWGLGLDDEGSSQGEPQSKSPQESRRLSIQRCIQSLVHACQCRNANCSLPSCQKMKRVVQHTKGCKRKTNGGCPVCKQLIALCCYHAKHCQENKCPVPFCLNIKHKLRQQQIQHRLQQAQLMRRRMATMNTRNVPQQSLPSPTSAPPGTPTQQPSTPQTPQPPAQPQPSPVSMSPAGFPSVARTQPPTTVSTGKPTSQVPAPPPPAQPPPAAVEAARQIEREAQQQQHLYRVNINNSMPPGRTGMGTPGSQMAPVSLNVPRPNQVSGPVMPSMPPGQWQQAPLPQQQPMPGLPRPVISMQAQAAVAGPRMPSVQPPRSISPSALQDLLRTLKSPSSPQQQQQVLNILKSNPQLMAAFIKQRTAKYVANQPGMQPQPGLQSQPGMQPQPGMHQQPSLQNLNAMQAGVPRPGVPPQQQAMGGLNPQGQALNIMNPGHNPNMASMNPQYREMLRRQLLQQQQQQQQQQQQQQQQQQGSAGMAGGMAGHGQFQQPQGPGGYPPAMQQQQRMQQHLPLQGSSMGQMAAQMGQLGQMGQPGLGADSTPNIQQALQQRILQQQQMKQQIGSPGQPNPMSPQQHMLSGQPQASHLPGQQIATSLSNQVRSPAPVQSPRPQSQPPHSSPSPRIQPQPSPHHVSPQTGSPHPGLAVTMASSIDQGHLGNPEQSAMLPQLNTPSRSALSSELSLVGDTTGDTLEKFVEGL
Histone acetyltransferase p300, sequence (Q09472 whole entry): as the sequence (Q09472 whole entry, looked up) above
CREB-binding protein, sequence (Q92793 whole entry): as the sequence (Q92793 whole entry, looked up) above

As usually defined, the IC50 is the concentration that inhibits the measured activity by half. Regarding `CN1C(=O)/C(=C/c2ccc(N3CCOCC3)o2)C(=O)NC1=S`, the IC50 in assay [1] is over 50 µM.
Regarding `CN1C(=O)/C(=C/c2ccccc2)C(=O)NC1=S`, the half-maximal inhibitory concentration (IC50) is 45 µM in assay [1] and over 100 µM in the assay with MV4-11 [2]. Further, the inhibition result in assay [3] and in assay [4] was “inactive” in each case.
Regarding `Cc1cc(/C=C2\C(=O)NC(=S)N(C)C2=O)c(C)n1C`, the IC50 in assay [1] was determined as 14 µM.
Still for that read-out and setting: with `CN1C(=O)/C(=C/c2ccncc2)C(=O)NC1=S` the figure was over 50 µM.
Regarding `CCCCCCCCCCCCCCCc1cccc(O)c1C(=O)O` [ANACARDIC ACID], the 50% inhibitory concentration (IC50) in [5] was found to be 64 µM.
On to `Cc1ccc(N2C(=O)/C(=C\C=C\c3ccco3)C(=O)NC2=S)cc1Cl`, for which the half-maximal inhibitory concentration (IC50) in assay [1] amounted to 0.7 µM; at CREB-binding protein it was 3.2 µM; in the assay with CCRF-CEM it was 3.8 µM; in the assay with MOLT-3, 2.7 µM; in the assay on Jurkat, 2.2 µM; in the assay with MOLT-4, 3.5 µM. Also, the half-inhibitory concentration (IC50) in the assay with Kasumi 1 was determined as 1.9 µM; in the assay on MV4-11 [2] it was 1.1 µM; in the assay on THP-1 it was 3 µM; in the assay on RS4-11, 4.7 µM; in the assay on KOPN-8, 5.9 µM; with K562, 3.1 µM. For the same compound, the inhibition entry in assay [6] and in assay [7] was “Dose-dependent effect” each time. For the same compound, the Activity entry in the assay with MV4-11 [8] was “Dose-dependent effect”; in the assay on MV4-11 [9] it was “Dose-dependent effect”; in the assay with MV4-11 [10] it was “>=60%”; with MV4-11 [11], “Dose-dependent effect”; with MV4-11 [12], “Dose-dependent effect”; with MV4-11 [13], “Dose-dependent effect”. For the same compound, in the assay on MV4-11 [24], the Activity entry is “Dose-dependent effect”. Further, the inhibition entry in [14], in [15], in assay [16], in [17], in assay [18] and in [19] was “Active” throughout. Further, the inhibition result in assay [20], in [21], in [25], in [26], in [27] and in [28] was “Active” throughout. Besides, the inhibition result in assay [29], in assay [30], in assay [31], in assay [32], in assay [33] and in assay [34] was “Active” each time. Further, the TGI result in the assay with MV4-11 [22] was “Dose-dependent effect”. Also, the result in the assay with MV4-11 [23] was Active.
On to `CN1C(=O)/C(=C/c2c[nH]c3ccccc23)C(=O)NC1=S`, for which the IC50 in assay [1] is over 50 µM.
